According to publication PMC12109412:

Assay: Single-molecule FRET cyclization (looping) of surface-immobilised 83 bp duplex with complementary 10-nt 5' overhangs; noncovalent ring closure by sticky-end hybridisation triggered by 1 M NaCl (no ligase)
Details: the molecule shown is the open-chain precursor, water, 50 mM Tris-HCl, 3 mM Trolox, glucose oxidase/catalase oxygen scavenger, other

Substance	ring closure, halflife
DNA 5'-Cy5-tccagaggcttcatctccggctccactggcT(biotin)ccatcgcctccgtccctggctccatcattgccatctgtcccttttcttttttcctcttcttc-3' / RNA 5'-Cy3-agccucuggagaagaagaggaaaaaagaaaagggacagauggcaaugauggagccagggacggaggcgauggagccaguggagccggagauga-3'	10.3 min
DNA 5'-Cy5-gaagaagaggaaaaaagaaaagggacagaT(biotin)ggcaatgatggagccagggacggaggcgatggagccagtggagccggagatgaagcctctgga-3' / RNA 5'-Cy3-ccucuucuucuccagaggcuucaucuccggcuccacuggcuccaucgccuccgucccuggcuccaucauugccaucugucccuuuucuuuuuu-3'	21.7 min
DNA 5'-Cy5-agagaaagaggcaaaaggggacggaagggaT(biotin)ggagccagaggagggggtgacagttgagtctcagccacaggtgaaggtggagccactggagg-3' / RNA 5'-Cy3-cucuuucucuccuccaguggcuccaccuucaccuguggcugagacucaacugucacccccuccucuggcuccaucccuuccguccccuuuugc-3'	26.1 min
DNA 5'-Cy5-cctccagtggctccaccttcacctgtggcT(biotin)gagactcaactgtcaccccctcctctggctccatcccttccgtccccttttgcctctttctct-3' / RNA 5'-Cy3-ccacuggaggagagaaagaggcaaaaggggacggaagggauggagccagaggagggggugacaguugagucucagccacaggugaagguggag-3'	10.8 min
DNA 5'-Cy5-acggattctgtgaaacggtggaggtgaggaT(biotin)agtcatgggtcaattagaagtcataggagaagtattaagggagtctatattgaggtactagc-3' / DNA 5'-Cy3-cagaatccgtgctagtacctcaatatagactcccttaatacttctcctatgacttctaattgacccatgactatcctcacctccaccgtttca-3'	31.5 min
DNA 5'-Cy5-acggattctgtgaaacggtggaggtgaggaT(biotin)agtcatgggtcaattagaagtcataggagaagtattaagggagtctatattgaggtactagc-3' / RNA 5'-Cy3-cagaauccgugcuaguaccucaauauagacucccuuaauacuucuccuaugacuucuaauugacccaugacuauccucaccuccaccguuuca-3'	20.4 min
